The values that follow come from patent publication US7964634B2, “Therapeutic compounds” (Allergan, Inc., priority 2008, dated 2011).

The assay concerns lashes and adjacent hairs of the eyelids. Put plainly: Observation of eyelash and hair growth in glaucoma patients treated in one eye. Type of assay: in vivo. An excerpt: In the course of treating patients having glaucoma, treatment may only be appropriate in one eye. […] The lash appearance on the lids of the treated eyes would have appeared quite attractive if it represented a bilateral phenomenon. As a result of its asymmetric nature, the long lashes on one side could be construed as disturbing from a cosmetic standpoint. A systemic examination was preformed as a result of the asymmetric phenomenon. It soon became apparent that this altered appearance was not an isolated finding.
The changes in the lashes were apparent on gross inspection in several patients once attention was focused on the issue. In those with light colored hair and lashes, the differences were only seen easily with the aid of the high magnification and lighting capabilities of the slit lamp biomicroscope. In the course of glaucoma follow-up examination, attention is generally immediately focused on the eye itself. As a result of the high power magnification needed only one eye is seen at a time and the eye is seen at a high enough power that the lashes are not in focus. At these higher powers, any lash asymmetry between the two eyes is not likely to be noticed except by careful systematic comparison of the lashes and adjacent hairs of the eyelids of the two eyes. […]

With `CCNC(=O)CCC/C=C\C[C@@H]1[C@@H](/C=C/[C@@H](O)CCc2ccccc2)[C@H](O)C[C@@H]1O` [bimatoprost], for the setting “all patients taking the drug on a unilateral basis for longer than 6 months”, the “differences in lashes and adjacent hairs of the treated side” value was “Definite differences could be identified to varying degrees”. The “lash appearance in treated eye versus non-treated eye” value (glaucoma patient treated in one eye only) was “longer, thicker, and fuller in the treated eye than in the non-treated eye”.
